Among the data in PubChem BioAssay (NCI) are TGI and GI50 values, retold here.

Test systems include SNB-19 CNS; K-562 leukemia; CCRF-CEM leukemia; T-47D breast; A498 renal; NCI-H226 lung; MALME-3M melanoma; RPMI-8226 leukemia; DU-145 prostate; IGROV1 ovarian.
Common to all, as to assay: inhibition of tumour cell growth, NCI panel, 48 h

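Five compound concentrations were applied to cells in 96-well plates for 48 hours; endpoints were derived by simple linear interpolation of the resulting dose-response curve. GI50: concentration for 50% inhibition of growth. The concentration for full growth arrest is given as TGI.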

Regarding `COC(=O)C1(Cc2ccc3c(c2)CCC3)Cc2ccc3c(c2C1=O)CCC3` (centres undefined), the TGI in the experiment with SNB-19 CNS was > 100 µM; in the experiment on K-562 leukemia, > 100 µM; in the experiment with CCRF-CEM leukemia it was > 83.1 µM; in the experiment with T-47D breast it was > 68.6 µM; in the experiment with A498 renal, 46.5 µM; in the experiment with NCI-H226 lung it was > 87.2 µM. Also, the TGI in the experiment on MALME-3M melanoma is > 63.8 µM; with RPMI-8226 leukemia it was 52.7 µM; in the experiment on DU-145 prostate, > 100 µM; in the experiment on IGROV1 ovarian it was > 100 µM.
Regarding `CC(O)C(CO)NC(=O)C1CSSCC(NC(=O)C(N)Cc2ccccc2)C(=O)NC(Cc2ccccc2)C(=O)NC(Cc2c[nH]c3ccccc23)C(=O)NC(CCCCN)C(=O)NC(C(C)O)C(=O)N1` (centres undefined), the TGI with SNB-19 CNS, in the experiment on K-562 leukemia, with CCRF-CEM leukemia, in the experiment on T-47D breast, in the experiment with A498 renal and with NCI-H226 lung was > 100 µM in each case. Also, the TGI in the experiment with MALME-3M melanoma, in the experiment with RPMI-8226 leukemia, with DU-145 prostate and in the experiment on IGROV1 ovarian was > 100 µM in each case.
In the case of `O=S1(=O)OCCOS(=O)(=O)C1(F)Cc1ccccc1`, the TGI in the experiment with SNB-19 CNS, in the experiment on K-562 leukemia, in the experiment with CCRF-CEM leukemia, with T-47D breast, in the experiment on A498 renal and in the experiment with NCI-H226 lung was > 100 µM in each case. The TGI with MALME-3M melanoma, in the experiment on RPMI-8226 leukemia, in the experiment with DU-145 prostate and in the experiment on IGROV1 ovarian was > 100 µM throughout.
Take `COc1cc(/C=C2\C(=O)N(c3cccc(NC(C)=O)c3)C(c3ccccc3)S2(=O)=O)cc(OC)c1OC` (centres undefined): the TGI in the experiment with SNB-19 CNS, with K-562 leukemia, in the experiment on CCRF-CEM leukemia, with T-47D breast, in the experiment on A498 renal and in the experiment on NCI-H226 lung was > 100 µM in each case. The TGI in the experiment with MALME-3M melanoma, with RPMI-8226 leukemia, in the experiment with DU-145 prostate and in the experiment on IGROV1 ovarian was > 100 µM each time.
As to `O=C(Cn1c2ccc(Br)cc2c2nc3ccccc3nc21)NCc1ccccc1`, the TGI is 72.4 µM in the experiment with SNB-19 CNS; > 100 µM with K-562 leukemia; > 100 µM with CCRF-CEM leukemia; 18.6 µM with T-47D breast; > 100 µM in the experiment on A498 renal; > 100 µM with NCI-H226 lung. For the same molecule, the TGI in the experiment with MALME-3M melanoma, in the experiment with RPMI-8226 leukemia, in the experiment on DU-145 prostate and in the experiment with IGROV1 ovarian was > 100 µM throughout.
Consider `CCO/N=C\c1ccc2oc(-c3ccccc3)cc(=O)c2c1`, for which the TGI is 19.8 µM in the experiment on SNB-19 CNS; > 100 µM in the experiment on K-562 leukemia; 26 µM with CCRF-CEM leukemia; 63.6 µM in the experiment with T-47D breast; 21.9 µM with A498 renal; 7.01 µM in the experiment with NCI-H226 lung. The TGI in the experiment on MALME-3M melanoma came to 43.1 µM; in the experiment on RPMI-8226 leukemia, 9.42 µM; with DU-145 prostate, 13.3 µM; in the experiment on IGROV1 ovarian it was 10.7 µM.
Regarding `C/C(Cc1ccc2c(c1)OCO2)=N\N=c1\sc2ccccc2n1C`, the TGI with SNB-19 CNS, in the experiment with K-562 leukemia, in the experiment with CCRF-CEM leukemia, in the experiment with T-47D breast, with A498 renal and in the experiment on NCI-H226 lung was > 100 µM each time. The TGI in the experiment on MALME-3M melanoma, in the experiment with RPMI-8226 leukemia, with DU-145 prostate and in the experiment with IGROV1 ovarian was > 100 µM each time.
Regarding `COC(=O)[C@@]12CSC[C@]1(C(=O)OC)N[C@@H](c1ccccc1O)C2`, the TGI in the experiment on SNB-19 CNS, in the experiment on K-562 leukemia, in the experiment on CCRF-CEM leukemia, in the experiment with T-47D breast, with A498 renal and in the experiment with NCI-H226 lung was > 100 µM each time. The TGI with MALME-3M melanoma, in the experiment with RPMI-8226 leukemia, in the experiment on DU-145 prostate and with IGROV1 ovarian was > 100 µM in each case.
`O=C(N/N=C\c1ccc(Cl)cc1)Nc1ccc2ccccc2c1`: the TGI in the experiment on SNB-19 CNS, in the experiment on K-562 leukemia, in the experiment on CCRF-CEM leukemia, with T-47D breast, with A498 renal and in the experiment with NCI-H226 lung was > 100 µM in each case. For the same molecule, the TGI in the experiment on MALME-3M melanoma, in the experiment with RPMI-8226 leukemia, with DU-145 prostate and in the experiment with IGROV1 ovarian was > 100 µM throughout.
For the molecule `ClCCCN1CCN(CCCl)CC1`, the GI50 in the experiment with SNB-19 CNS was 99.1 µM; with K-562 leukemia it was 82.9 µM; in the experiment on CCRF-CEM leukemia it was 2.54 µM; with DU-145 prostate, 26.9 µM. Besides, the TGI was > 1000 µM in the experiment with SNB-19 CNS; > 965 µM in the experiment with K-562 leukemia; 437 µM with CCRF-CEM leukemia; > 745 µM in the experiment on T-47D breast; 774 µM in the experiment on A498 renal; 879 µM in the experiment on NCI-H226 lung. Besides, the TGI in the experiment with MALME-3M melanoma was 390 µM; in the experiment on RPMI-8226 leukemia it was 743 µM; in the experiment on DU-145 prostate, 692 µM; in the experiment with IGROV1 ovarian it was 652 µM.
Take `N=c1oc2cc(O)ccc2cc1C(=O)Nc1ccccn1`: the TGI was > 100 µM in the experiment on SNB-19 CNS; > 100 µM with K-562 leukemia; 94.2 µM in the experiment with CCRF-CEM leukemia; > 100 µM with T-47D breast; 98.2 µM in the experiment on A498 renal; > 100 µM in the experiment with NCI-H226 lung. For the same molecule, the TGI in the experiment on MALME-3M melanoma was > 100 µM; with RPMI-8226 leukemia it was > 100 µM; in the experiment on DU-145 prostate, 61 µM; in the experiment on IGROV1 ovarian, > 100 µM.
Take `Cc1cn(S(=O)(=O)c2ccccc2)c2c(OCc3ccccc3)cc([N+](=O)[O-])cc12`: the TGI in the experiment with SNB-19 CNS, with K-562 leukemia, with CCRF-CEM leukemia, in the experiment with T-47D breast, with A498 renal and with NCI-H226 lung was > 100 µM throughout. Moreover, the TGI in the experiment with MALME-3M melanoma, with RPMI-8226 leukemia, in the experiment on DU-145 prostate and with IGROV1 ovarian was > 100 µM in each case.
`O=C(O)c1ccc2c(O)c(O)ccc2c1`: the TGI in the experiment on SNB-19 CNS was 36.1 µM; with K-562 leukemia, > 63.6 µM; in the experiment with CCRF-CEM leukemia, > 31.6 µM; in the experiment on T-47D breast, > 100 µM; in the experiment with A498 renal, 97.9 µM; with NCI-H226 lung, 44.3 µM. The TGI is > 74.6 µM in the experiment on MALME-3M melanoma, 40.2 µM in the experiment on RPMI-8226 leukemia, > 100 µM with DU-145 prostate and 38.2 µM in the experiment with IGROV1 ovarian.
